Data reported in the supplement of paper PMC10307832.

Columns and labels:
Experiment in all cases: relative viability (nuclei count vs DMSO), 5 days (fraction); higher = more cells survive
[1] = compound: CC(O)(CS(=O)(=O)c1ccc(F)cc1)C(=O)Nc1ccc(C#N)c(C(F)(F)F)c1 [Bicalutamide] + Nc1ncn([C@H]2C[C@H](O)[C@@H](CO)O2)c(=O)n1 [Decitabine] (partner 2 µM)
Procedure, shortened: (§1)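 Each reported value is a median over duplicate plates. It expresses relative viability: treated-well nuclei count divided by vehicle-well nuclei count. Lung cancer cell lines in 1536-well plates were dosed by pin tool a day after seeding, alone with one drug or with a fixed anchor-drug dose plus five library-drug doses (not always all listed) in √10 steps, and nuclei were counted after 5 days.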

[2] = compound: C(C(=O)C(=O)O)Br [Bromopyruvate] + COc1cc2c(Oc3ccc(NC(=O)C4(C(=O)Nc5ccc(F)cc5)CC4)cc3F)ccnc2cc1OCCCN1CCOCC1 [Foretinib] (partner 0.25 µM)
Procedure, shortened: as §1

[3] = compound: CC(O)(CS(=O)(=O)c1ccc(F)cc1)C(=O)Nc1ccc(C#N)c(C(F)(F)F)c1 [Bicalutamide] + CC1(C)CCC(c2ccc(Cl)cc2)=C(CN2CCN(c3ccc(C(=O)NS(=O)(=O)c4ccc(N[C@H](CCN5CCOCC5)CSc5ccccc5)c(S(=O)(=O)C(F)(F)F)c4)cc3)CC2)C1 [Navitoclax] (partner 0.5 µM)
Procedure, shortened: as §1

[4] = compound: C(C(=O)C(=O)O)Br [Bromopyruvate] + Nc1ncn([C@H]2C[C@H](O)[C@@H](CO)O2)c(=O)n1 [Decitabine] (partner 2 µM)
Procedure, shortened: as §1

Cell Line | relative viability ([1]; first compound 0.08 µM) | relative viability ([1]; first compound 0.253 µM) | relative viability ([1]; first compound 0.8 µM) | relative viability ([1]; first compound 2.53 µM) | relative viability ([2]; first compound 1 µM) | relative viability ([2]; first compound 3.162 µM) | relative viability ([2]; first compound 10 µM) | relative viability ([2]; first compound 31.62 µM) | relative viability ([2]; first compound 100 µM) | relative viability ([3]; first compound 0.08 µM) | relative viability ([3]; first compound 0.253 µM) | relative viability ([3]; first compound 0.8 µM) | relative viability ([3]; first compound 2.53 µM) | relative viability ([4]; first compound 1 µM) | relative viability ([4]; first compound 3.162 µM) | relative viability ([4]; first compound 10 µM) | relative viability ([4]; first compound 31.62 µM) | relative viability ([4]; first compound 100 µM)
NCI-H1915 | 0.28 | 0.26 | 0.282 | 0.278 | 1.03 | 1.08 | 1.09 | 1 | 1.12 | 0.815 | 0.76 | 0.804 | 0.812 | 0.258 | 0.273 | 0.268 | 0.249 | 0.271
NCI-H1944 | 0.441 | 0.433 | 0.428 | 0.462 | 0.954 | 0.83 | 1.03 | 0.874 | 0.913 | 1.04 | 1.08 | 1.08 | 1.03 | 0.419 | 0.423 | 0.503 | 0.39 | 0.44
NCI-H1975 | 0.384 | 0.36 | 0.436 | 0.408 | 0.988 | 1.1 | 1.03 | 0.972 | 0.927 | 0.951 | 1.05 | 1.23 | 1.12 | 0.396 | 0.402 | 0.341 | 0.394 | 0.413
NCI-H1993 | 0.678 | 0.514 | 0.647 | 0.627 | 0.84 | 0.817 | 0.939 | 0.764 | 0.774 |  | 0.896 | 0.912 | 1.02 | 0.612 | 0.609 | 0.628 | 0.655 | 0.464
NCI-H2009 | 0.356 | 0.37 | 0.405 | 0.38 | 1.22 | 1.25 | 1.19 | 1.2 | 0.883 | 1.29 | 1.24 | 1.14 | 1.08 | 0.352 | 0.42 | 0.336 | 0.349 | 0.261
NCI-H2023 | 0.267 | 0.227 | 0.248 | 0.233 | 0.716 | 0.776 | 0.813 | 0.985 | 0.806 | 1.08 | 1.04 | 1.06 | 0.945 | 0.221 | 0.205 | 0.29 | 0.229 | 0.194
NCI-H2085 | 0.555 | 0.601 | 0.553 | 0.525 | 0.865 | 1.06 | 0.964 | 0.779 | 0.465 | 1.19 | 1.17 | 1.22 | 0.902 | 0.626 | 0.557 | 0.529 | 0.593 | 0.526
NCI-H2087 | 0.295 | 0.237 | 0.302 | 0.286 | 1.13 | 1.17 | 0.97 | 1.12 | 0.595 | 1.15 | 1.09 | 1.1 | 0.974 | 0.307 | 0.318 | 0.248 | 0.305 | 0.259
NCI-H2126 | 0.572 | 0.537 | 0.582 | 0.528 | 1.17 | 1.39 | 1.2 | 1.26 | 1.31 | 0.929 | 0.806 | 0.873 | 0.847 | 0.625 | 0.603 | 0.543 | 0.582 | 0.564
NCI-H2170 | 0.442 | 0.441 | 0.515 | 0.496 | 0.961 | 1.01 | 1.07 | 0.995 | 0.966 | 0.553 | 0.506 | 0.661 | 0.591 | 0.471 | 0.464 | 0.424 | 0.44 | 0.438
NCI-H2347 | 0.583 | 0.651 | 0.628 | 0.634 | 0.925 | 1.01 | 1.22 | 0.721 | 0.982 | 0.853 | 0.795 | 0.848 | 0.774 | 0.605 | 0.643 | 0.541 | 0.616 | 0.635
NCI-H2405 | 0.708 | 0.689 | 0.787 | 0.716 | 1.08 | 1.07 | 1.08 | 1.04 | 1.04 | 0.948 | 0.816 | 0.987 | 0.925 | 0.696 | 0.732 | 0.854 |  | 0.665
NCI-H3122 | 0.4 | 0.45 | 0.449 | 0.455 | 0.985 | 1.04 | 1.01 | 0.915 | 0.917 | 0.991 | 1.01 | 1.02 | 1.03 | 0.454 | 0.426 | 0.365 | 0.425 | 0.377
PC-3 [JPC-3] | 0.791 | 0.88 | 0.797 | 0.873 | 1.16 | 1.03 | 1.12 | 0.976 | 1.03 | 0.867 | 0.775 | 0.869 | 0.91 | 0.866 |  | 0.91 |  | 0.738
PC-14 | 0.243 | 0.182 | 0.239 | 0.204 | 0.945 | 0.939 | 1.02 | 0.848 | 0.981 | 0.948 | 0.944 | 1.02 | 1.08 | 0.226 | 0.229 | 0.204 | 0.262 | 0.201
RERF-LC-KJ | 0.745 | 0.631 | 0.837 | 0.66 | 0.843 | 0.918 | 0.962 | 0.818 | 0.869 | 0.951 | 0.98 | 0.793 | 0.799 | 0.738 | 0.745 | 0.791 | 0.794 | 0.72
SK-LU-1 | 0.689 | 0.611 | 0.791 | 0.61 | 0.846 | 0.867 | 0.954 | 0.671 | 0.799 | 1.04 | 1.04 | 1.38 | 0.902 | 0.704 | 0.606 | 0.56 | 0.597 | 0.623
SK-MES-1 | 0.497 | 0.374 | 0.405 | 0.416 | 0.964 | 0.962 | 0.938 | 0.75 | 1.17 | 1.13 | 1.19 | 1.26 | 1.17 | 0.362 | 0.494 | 0.353 | 0.427 | 0.337
